Results from ChEMBL document CHEMBL1201862, “PubChem BioAssay data set” (2004).
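Grown in 96-well plates, cells were treated for 48 hours with each compound at five concentrations. Insufficient inhibition: endpoint recorded as highest concentration tested. The concentration for 50% growth inhibition is given as GI50.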 The source made the active and inactive calls. Cut-off read from the data, not from the text of the source: active = GI50 up to about 1.1 µM and inactive = higher.

Key:
Experiment in all cases: inhibition of tumour cell growth, NCI panel, 48 h
786-0 = system: 786-0
EKVX = system: EKVX
HCT-15 = system: HCT-15
HL-60 = system: HL-60
HOP-62 = system: HOP-62
HT-29 = system: HT-29
KM12 = system: KM12
M19-MEL = system: M19-MEL
MOLT-4 = system: MOLT-4
Malme-3M = system: Malme-3M
NCI-H460 = system: NCI-H460
OVCAR-8 = system: OVCAR-8
SNB-19 = system: SNB-19
SW-620 = system: SW-620
UACC-257 = system: UACC-257
OVCAR-4 = system: OVCAR-4
SK-MEL-5 = system: SK-MEL-5
DU-145 = system: DU-145
Hs-578T = system: Hs-578T
MDA-N = system: MDA-N

Structure (SMILES)	GI50 (786-0)	GI50 (EKVX)	GI50 (HCT-15) [µM]	GI50 (HL-60)	GI50 (HOP-62)	GI50 (HT-29)	GI50 (KM12)	GI50 (M19-MEL)	GI50 (MOLT-4)	GI50 (Malme-3M)	GI50 (NCI-H460)	GI50 (OVCAR-8)	GI50 (SNB-19)	GI50 (SW-620)	GI50 (UACC-257)	GI50 (OVCAR-4)	GI50 (SK-MEL-5)	GI50 (DU-145)	GI50 (Hs-578T)	GI50 (MDA-N)
O=C(CO[N+](=O)[O-])OC/C=C/c1ccccc1	> 100 µM (inactive)	> 100 µM (inactive)	> 100	22.1 µM (inactive)	> 100 µM (inactive)	> 100 µM (inactive)	> 100 µM (inactive)	> 100 µM (inactive)	> 100 µM (inactive)	> 100 µM (inactive)	> 100 µM (inactive)	> 100 µM (inactive)	> 100 µM (inactive)	> 100 µM (inactive)	> 100 µM (inactive)					
CC1(C)CCOC(Sc2ccccc2)C1 (stereo unspecified)	> 100 µM (inactive)	> 100 µM (inactive)	50.6	10.5 µM (inactive)	> 100 µM (inactive)		76.6 µM (inactive)	30.3 µM (inactive)	23.2 µM (inactive)		84.9 µM (inactive)	> 100 µM (inactive)	> 100 µM (inactive)	> 100 µM (inactive)	35.2 µM (inactive)	52.8 µM (inactive)	15 µM (inactive)			
O=C(c1ccc(Cl)cc1Cl)C1[C@H]2C(=O)N(c3ccc(Cc4ccc(N5C(=O)[C@@H]6ON(c7ccccc7)C(C(=O)c7ccc(Cl)cc7Cl)[C@@H]6C5=O)cc4)cc3)C(=O)[C@H]2ON1c1ccccc1 (stereo partly specified)	> 50 µM (inactive)		> 50	> 50 µM (inactive)	> 50 µM (inactive)	> 50 µM (inactive)	> 50 µM (inactive)	> 50 µM (inactive)	> 50 µM (inactive)	> 50 µM (inactive)	> 50 µM (inactive)	> 50 µM (inactive)	> 50 µM (inactive)	> 50 µM (inactive)	> 50 µM (inactive)	> 50 µM (inactive)	> 50 µM (inactive)			
Cn1c(=O)nc2n(-c3cccc(F)c3)c3ccccc3nc-2c1=O	42 µM (inactive)	13.8 µM (inactive)	16.6		53.2 µM (inactive)	5.92 µM (inactive)	23.1 µM (inactive)	2.11 µM (inactive)	23.1 µM (inactive)	14.4 µM (inactive)	11.6 µM (inactive)	23.2 µM (inactive)	21.9 µM (inactive)	11.1 µM (inactive)	12.8 µM (inactive)	14.7 µM (inactive)	14.2 µM (inactive)			
COc1cccc(/C=C/c2cc(OC)c(OC)c(OC)c2)c1	30.5 µM (inactive)	36.2 µM (inactive)	53		37 µM (inactive)	34.4 µM (inactive)	66.4 µM (inactive)	70.1 µM (inactive)	36.6 µM (inactive)	34.8 µM (inactive)	43.4 µM (inactive)	55.6 µM (inactive)	42.9 µM (inactive)	50.4 µM (inactive)	38.3 µM (inactive)		24.8 µM (inactive)			
CC1C=C(CCCCCCCCCCCC[C@@H](O)[C@@H]2CC[C@@H]([C@@H]3CC[C@@H](C(O)CCCCCCCCCCCCC4=C[C@H](C)OC4=O)O3)O2)C(=O)O1 (stereo partly specified)	> 100 µM (inactive)	1.44 µM (inactive)	57.5	5.41 µM (inactive)	> 100 µM (inactive)	> 79.1 µM (inactive)	> 68.1 µM (inactive)	31.2 µM (inactive)	11.6 µM (inactive)	> 91.2 µM (inactive)	0.881 µM (active)	25.5 µM (inactive)	> 42.5 µM (inactive)	> 57.3 µM (inactive)	0.387 µM (active)		0.0783 µM (active)			
COCC(O)Cn1ccnc1[N+](=O)[O-] (stereo unspecified) [MISONIDAZOLE]	> 100 µM (inactive)	> 100 µM (inactive)	> 100	> 100 µM (inactive)	> 100 µM (inactive)	> 100 µM (inactive)	> 100 µM (inactive)	> 100 µM (inactive)	> 100 µM (inactive)	> 100 µM (inactive)	> 100 µM (inactive)	> 100 µM (inactive)	> 100 µM (inactive)	> 100 µM (inactive)	> 100 µM (inactive)					
CN1C(=O)CC(CC(=O)C2CCCCC2=O)CC1=O (stereo unspecified)	> 100 µM (inactive)	> 100 µM (inactive)		> 100 µM (inactive)	> 100 µM (inactive)	> 100 µM (inactive)	> 100 µM (inactive)	> 100 µM (inactive)	> 100 µM (inactive)	> 100 µM (inactive)	> 100 µM (inactive)	> 100 µM (inactive)	> 100 µM (inactive)	> 100 µM (inactive)	> 100 µM (inactive)	> 100 µM (inactive)				
O=C(O)CSc1nnc(COc2ccccc2)n1-c1ccccc1	> 100 µM (inactive)		> 100	> 100 µM (inactive)	> 100 µM (inactive)	> 100 µM (inactive)	> 100 µM (inactive)	> 100 µM (inactive)	> 100 µM (inactive)	> 100 µM (inactive)	> 100 µM (inactive)	> 100 µM (inactive)			> 100 µM (inactive)	> 100 µM (inactive)	> 100 µM (inactive)			
CN(C)/C=N/c1nc2ncn(CCOC(=O)c3ccccc3)c2c(=O)[nH]1	> 100 µM (inactive)	> 100 µM (inactive)	> 100	> 100 µM (inactive)	> 100 µM (inactive)	> 100 µM (inactive)	> 100 µM (inactive)	> 100 µM (inactive)		> 100 µM (inactive)	> 100 µM (inactive)	> 100 µM (inactive)		> 100 µM (inactive)	> 100 µM (inactive)	> 100 µM (inactive)	> 100 µM (inactive)			
COc1ccc2[nH]c3c(c2c1)[C@H](c1ccccc1)C[C@@H]1C(=O)N(c2ccccc2)C(=O)[C@H]31	17.5 µM (inactive)	89.1 µM (inactive)	41.7		22 µM (inactive)		17.5 µM (inactive)	> 100 µM (inactive)	15.1 µM (inactive)	45.5 µM (inactive)	22.4 µM (inactive)	4.93 µM (inactive)	29.2 µM (inactive)	20.7 µM (inactive)	> 100 µM (inactive)	16.7 µM (inactive)	72.9 µM (inactive)			
Cn1nc2c(c1N)Cc1c(nn(C)c1N)-c1ccccc1-2	> 100 µM (inactive)	> 100 µM (inactive)	> 100	> 100 µM (inactive)	> 100 µM (inactive)	> 100 µM (inactive)	> 100 µM (inactive)		> 100 µM (inactive)	> 100 µM (inactive)	> 100 µM (inactive)	> 100 µM (inactive)	> 100 µM (inactive)	> 100 µM (inactive)	> 100 µM (inactive)	> 100 µM (inactive)	> 100 µM (inactive)	> 100 µM (inactive)	> 100 µM (inactive)	> 100 µM (inactive)
Cc1occc1C(=S)Nc1ccc(Cl)c(C(=O)OC(C)C2CC2)c1 (stereo unspecified)	19.3 µM (inactive)	19.1 µM (inactive)	18.5	24.2 µM (inactive)	17.8 µM (inactive)	20.6 µM (inactive)	16.3 µM (inactive)		17.4 µM (inactive)	16.4 µM (inactive)	35.7 µM (inactive)	18.3 µM (inactive)	17.3 µM (inactive)	35.8 µM (inactive)	30.3 µM (inactive)	15.3 µM (inactive)	15.3 µM (inactive)	28.1 µM (inactive)	27.7 µM (inactive)	18.6 µM (inactive)
COc1cccc(/C=C\c2ccnc3ccccc23)c1	> 10 µM (inactive)	> 10 µM (inactive)	> 10	> 10 µM (inactive)	> 10 µM (inactive)	> 10 µM (inactive)	> 10 µM (inactive)		> 10 µM (inactive)	> 10 µM (inactive)	> 10 µM (inactive)	> 10 µM (inactive)	> 10 µM (inactive)	> 10 µM (inactive)	> 10 µM (inactive)	> 10 µM (inactive)	> 10 µM (inactive)	> 10 µM (inactive)	> 10 µM (inactive)	> 10 µM (inactive)
Cc1ccc([N+](=O)[O-])cc1S(=O)(=O)Nc1ccc(C(=O)/C=C/c2cccs2)cc1	18.4 µM (inactive)	20.1 µM (inactive)	23.4	28.3 µM (inactive)	22.1 µM (inactive)	18.9 µM (inactive)	16.6 µM (inactive)		22.2 µM (inactive)	27.4 µM (inactive)	51.5 µM (inactive)	37.4 µM (inactive)	21.5 µM (inactive)	22.4 µM (inactive)	20.5 µM (inactive)	22.5 µM (inactive)	16.9 µM (inactive)	23.3 µM (inactive)	36.3 µM (inactive)	25.2 µM (inactive)
CN1CCN(CCCCN2c3ccccc3Sc3ccc(N=[N+]=[N-])cc32)CC1	7.76 µM (inactive)	13.6 µM (inactive)	7.36	1.95 µM (inactive)	15.2 µM (inactive)	2.07 µM (inactive)	6.22 µM (inactive)		2.41 µM (inactive)	2.43 µM (inactive)	6.01 µM (inactive)	13.5 µM (inactive)	13.4 µM (inactive)	2.68 µM (inactive)	2.06 µM (inactive)	10.2 µM (inactive)	2.26 µM (inactive)	12.9 µM (inactive)	7.31 µM (inactive)	2.88 µM (inactive)
OCC(O)C(Cl)CCl (stereo unspecified)	> 100 µM (inactive)	> 100 µM (inactive)	> 100	> 100 µM (inactive)	> 100 µM (inactive)	> 100 µM (inactive)	> 100 µM (inactive)		> 100 µM (inactive)	31.5 µM (inactive)	> 100 µM (inactive)	> 100 µM (inactive)	> 100 µM (inactive)	> 100 µM (inactive)	> 100 µM (inactive)	> 100 µM (inactive)	> 100 µM (inactive)	> 100 µM (inactive)	> 100 µM (inactive)	> 100 µM (inactive)
